Data as given in patent US20030119748A1 (Idun Pharmaceuticals, Inc., priority 1996, published 2003).
Where two headings read alike, the source gives them in different places.

Tests used:
CPP32 = molecular target: T1, CPP32 (Homo sapiens, UniProt P42574); assay: Fluorescence enzyme assay, IC50 for CPP32 (Example 1A); format: biochemical; details: Table 1, Formula A; 30 min preincubation, room temperature
T1 sequence (P42574 29-277): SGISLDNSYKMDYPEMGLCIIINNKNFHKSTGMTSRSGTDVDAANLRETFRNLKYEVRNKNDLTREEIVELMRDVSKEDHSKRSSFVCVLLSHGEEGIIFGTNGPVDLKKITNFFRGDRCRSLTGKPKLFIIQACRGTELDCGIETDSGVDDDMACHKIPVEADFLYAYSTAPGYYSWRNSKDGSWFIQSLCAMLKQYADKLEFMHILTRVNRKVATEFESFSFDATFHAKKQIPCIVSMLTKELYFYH
Protocol: (§1) Fluorescence enzyme assays detecting the activity of the compounds of Formula 1 utilizing the recombinant ICE and CPP32 enzymes were performed essentially according to Thomberry et al. (Nature, 356:768:774 (1992)) and Nicholson et al. (Nature, 376:37-43 (1995)) respectively, (herein incorporated by reference) in 96 well microtiter plates. The substrate for these assays was Acetyl-Tyr-Val-Ala-Asp-amino-4-methylcoumarin (AMC) for the ICE assay and Acetyl-Asp-Glu-Val-Asp-amino-4-methylcoumarin for the CPP32 and Mch5 assays. Enzyme reactions were run in ICE buffer (25 mM HEPES, 1 mM EDTA, 0.1% CHAPS, 10% sucrose, pH 7.5) containing 2 mM DTT at room temperature in duplicate. The assays were performed by mixing the following components:
(§2) 50 μl of either ICE, Mch2, Mch5 or CPP32 (18.8, 38, 8.1 and 0.153 nM concentrations, respectively) enzyme in ICE buffer containing either 8.0 (ICE, Mch2, CPP32) or 20 (Mch5) mM DTT;
(§3) 50 μl of either the compound of Formula 1 or ICE buffer (control); and
(§4) 100 μl of 20 μM substrate.
(§5) The enzyme and the compound of Formula 1 to be assayed were preincubated in the microtitre plate wells for 30 minutes at room temperature prior to the addition of substrate to initiate the reaction. Fluorescent AMC product formation was monitored for one hour at room temperature by measuring the fluorescence emission at 460 nm using an excitation wavelength of 360 nm. The fluorescence change in duplicate (control) wells were averaged and the mean values were plotted as a function of inhibitor concentration to determine the inhibitor concentration producing 50% inhibition (IC50).

mICE = molecular target: T2, mICE (Mus musculus, UniProt P29452); assay: Fluorescence enzyme assay, IC50 for ICE (Example 1A); format: biochemical
T2 sequence (P29452 119-402): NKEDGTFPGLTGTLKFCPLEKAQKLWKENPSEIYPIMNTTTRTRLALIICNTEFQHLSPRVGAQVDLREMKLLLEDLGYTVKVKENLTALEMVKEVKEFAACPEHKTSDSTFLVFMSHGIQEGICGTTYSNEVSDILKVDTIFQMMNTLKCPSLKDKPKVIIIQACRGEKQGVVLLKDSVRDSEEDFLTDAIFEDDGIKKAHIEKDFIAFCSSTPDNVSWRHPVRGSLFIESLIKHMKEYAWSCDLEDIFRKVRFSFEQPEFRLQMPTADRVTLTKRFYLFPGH
Protocol: as §1, §2, §3, §4, §5

[1] = Table 1, Formula A, 30 min preincubation, room temperature, read-out: mICE IC50

Structure (SMILES)	IC50 (CPP32)	IC50 (mICE; [1])	IC50 (mICE; read-out: IC50 (mICE))
C[C@H](NC(=O)c1cc2ccccc2n1C)C(=O)N[C@H](C=O)CC(=O)O [Example 4, (3S)-3-[(1-Methylindole-2-Carbonyl)Alaninyl]Amino-4-Oxobutanoic Acid]	> 10 µM	177 nM	–
Cn1c(C(=O)N2CCC[C@H]2C(=O)N[C@H](C=O)CC(=O)O)cc2ccccc21 [Example 7, (3S)-3-[(1-Methylindole-2-Carbonyl)Prolinyl]Amino-4-Oxo-Butanoic Acid]	> 50 µM	11700 nM	–
CC(C)C(NC(=O)c1cc2ccccc2n1C)C(=O)NC(C=O)CC(=O)O [Example 10, (3S)-3-[1-Methylindole-2-Carbonyl)Vainyl]Amino-4-Oxo-Butanoic Acid]	2.48 µM	531 nM	–
CC(C)C[C@H](NC(=O)c1cc2ccccc2n1C)C(=O)N[C@H](C=O)CC(=O)O [Example 13, (3S)-3-[(1-Methylindole-2-Carbonyl)Leucinyl]Amino-4-Oxo-Butanoic Acid]	5.62 µM	5520 nM	–
Cn1c(C(=O)NCC(=O)N[C@H](C=O)CC(=O)O)cc2ccccc21 [Example 21, (3S)-3-[(1-Methylindole-2-Carbonyl)Glycinyl]-Amino-4-Oxo-Butanoic Acid]	> 50 µM	34700 nM	–
C[C@H](NC(=O)c1cc2ccccc2n1Cc1ccccc1)C(=O)N[C@H](C=O)CC(=O)O [Example 24, (3S)-3-[(1-Benzylindole-2-Carbonyl)Alaninyl]Amino-4-Oxo-Butanoic Acid]	> 50 µM	393 nM	–
C=CCCn1c(C(=O)NC(C(=O)NC(C=O)CC(=O)O)C(C)C)cc2ccccc21 [Example 27, (3S)-3-[(1-(4′-Butenyl)indole-2-Carbonyl)Valinyl]Amino-4-Oxobutanoic Acid]	1.45 µM	313 nM	–
CC(NC(=O)c1cc2ccccc2n1CC(=O)O)C(=O)N[C@H](C=O)CC(=O)O (stereo partly drawn) [Example 30, (3S)-3-[(1-(Carboxymethyl)Indole-2-Carbonyl)Alaninyl] Amino-4-Oxobutanoic Acid]	> 50 µM	1630 nM	–
CC(NC(=O)c1cc2ccccc2n1CCC(=O)O)C(=O)NC(C=O)CC(=O)O [Example 33, (3S)-3-(1-(2′-Carboxyethyl)Indole-2-Carbonyl)Alaninyl] Amino-4-Oxobutanoic Acid]	> 50 µM	198 nM	–
Cc1c(C(=O)NC(C(=O)NC(CC(=O)O)C(=O)COc2cc3ccccc3cc2-c2ncc[nH]2)C(C)C)n(C)c2ccccc12 (stereo not shown) [Example 80, N-[(1,3-dimethyl-indole-2-cabonyl)valinyl]-3-amino-5-[3-(imidazol-2-yl)-naphthyl-2-oxy]-4-oxo-pentanoic Acid]	–	–	< 1000 nM
CC(C)Cc1c(C(=O)NC(C(=O)NC(CC(=O)O)C(=O)COc2c(F)c(F)cc(F)c2F)C(C)C)n(C)c2ccccc12 (stereo not shown) [Example 83, N-[(1-methyl-3-isobutyl-indole-2-cabonyl)valinyl]-3-amino-4-oxo-5-(2,3,5,6-tetrafluorophenyloxy)-pentanoic Acid]	–	–	< 1000 nM
CC(C)Cc1c(C(=O)NC(C(=O)NC(CC(=O)O)C(=O)COc2ccccc2F)C(C)C)n(C)c2ccccc12 (stereo not shown) [Example 87, N-[(1-methyl-3-isobutyl-indole-2-cabonyl)valinyl]-3-amino-4-oxo-5-(2-fluorophenyloxy)-pentanoic Acid]	–	–	< 1000 nM
CC(C)Cc1c(C(=O)NC(CC(C)C)C(=O)NC(CC(=O)O)C(=O)COC(=O)c2c(Cl)cccc2Cl)n(C)c2ccccc12 (stereo not shown) [Example 90, N-[(1-methyl-3-isobutyl-indole-2-cabonyl)leucinyl]-3-amino-5-(2,6-dichlorobenzoyl) oxy-4-oxo Pentanoic Acid]	–	–	< 1000 nM
CC(C)Cc1c(C(=O)NC(CC(C)C)C(=O)NC(CC(=O)O)C(=O)COc2c(F)c(F)cc(F)c2F)n(C)c2ccccc12 (stereo not shown) [Example 92, N-[(1-methyl-3-isobutyl-indole-2-cabonyl)leucinyl]-3-amino-4-oxo-5-(2,3,5,6-tetrafluorophenyloxy)-pentanoic Acid]	–	–	< 1000 nM
CC(C)Cc1c(C(=O)NC(CC(C)C)C(=O)NC(CC(=O)O)C(=O)COP(=O)(c2ccccc2)c2ccccc2)n(C)c2ccccc12 (stereo not shown) [Example 94, N-[(1-methyl-3-isobutyl-indole-2-cabonyl)leucinyl]-3-amino-5-(diphenylphosphoroxy)-4-oxo-pentanoic Acid]	–	–	< 1000 nM
CC(C)Cc1c(C(=O)NC(CC2CCCCC2)C(=O)NC(CC(=O)O)C(=O)COc2c(F)c(F)cc(F)c2F)n(C)c2ccccc12 (stereo not shown) [Example 97, N-[(1-methyl-3-isobutyl-indole-2-cabonyl)cyclohexylalaninyl]-3-amino-4-oxo-5-(2,3,5,6-tetrafluorophenyloxy)-pentanoic Acid]	–	–	< 1000 nM
CC(C)Cc1c(C(=O)NC(CC2CCCCC2)C(=O)NC(CC(=O)O)C(=O)COC(=O)c2c(Cl)cccc2Cl)n(C)c2ccccc12 (stereo not shown) [Example 99]	–	–	< 1000 nM
CC(C)Cc1c(C(=O)NC(CC2CCCCC2)C(=O)NC(CC(=O)O)C(=O)COc2cc(C(F)(F)F)nn2-c2ccccc2)n(C)c2ccccc12 (stereo not shown) [Example 101, N-[(1-methyl-3-isobutyl-indole-2-cabonyl)cyclohexylalaninyl]-3-amino-4-oxo-5-[1-phenyl-3-(trifluoromethyl)pyrazol-5-yloxy]-pentanoic Acid]	–	–	< 1000 nM
Cc1c(C(=O)NC(C(=O)NC(CC(=O)O)C(=O)COc2c(F)c(F)cc(F)c2F)C(C)C)n(C)c2ccccc12 (stereo not shown) [Example 109, N-[(1,3-dimethyl-indole-2-cabonyl)valinyl]-3-amino-4-oxo-5-(2,3,5,6-tetrafluorophenyloxy)-pentanoic Acid]	–	–	< 1000 nM
CC(C)C(NC(=O)c1cc2ccccc2n1C)C(=O)NC(CC(=O)O)C(=O)COc1c(F)c(F)cc(F)c1F (stereo not shown) [Example 112, N-[(1-methyl-indole-2-cabonyl)valinyl]-3-amino-4-oxo-5-(2,3,5,6-tetrafluorophenyloxy)-pentanoic Acid]	–	–	< 1000 nM
CC(C)C(NC(=O)c1cc2cc(F)ccc2n1C)C(=O)NC(CC(=O)O)C(=O)COc1c(F)c(F)cc(F)c1F (stereo not shown) [Example 115, N-[(5-fluoro-1-methyl-indole-2-cabonyl)valinyl]-3-amino-4-oxo-5-(2,3,5,6-tetrafluorophenyloxy)-pentanoic Acid]	–	–	< 1000 nM
CC(C)C(NC(=O)c1cc2ccccc2n1CC(=O)O)C(=O)NC(CC(=O)O)C(=O)COc1c(F)c(F)cc(F)c1F (stereo not shown) [Example 118, N-{[1-(carboxymethyl)-indole-2-cabonyl]valinyl}-3-amino-4-oxo-5-(2,3,5,6-tetrafluorophenyloxy)-pentanoic Acid]	–	–	< 1000 nM
